Source: patent US8148097B2, “Screening method for identification of compounds with calcium-independent phospholipase A2β (iPLA2β) modulating activity” (Washington University, priority 2005, dated 2012)

Target: T1, iPLA2β (Cricetulus griseus, UniProt A0A3L7I2I8)
T1 construct: (His)6; made in house; host or cells: Sf9 insect cells (baculovirus)
T1 sequence (A0A3L7I2I8 1-752 isoform A0A3L7I2I8-2): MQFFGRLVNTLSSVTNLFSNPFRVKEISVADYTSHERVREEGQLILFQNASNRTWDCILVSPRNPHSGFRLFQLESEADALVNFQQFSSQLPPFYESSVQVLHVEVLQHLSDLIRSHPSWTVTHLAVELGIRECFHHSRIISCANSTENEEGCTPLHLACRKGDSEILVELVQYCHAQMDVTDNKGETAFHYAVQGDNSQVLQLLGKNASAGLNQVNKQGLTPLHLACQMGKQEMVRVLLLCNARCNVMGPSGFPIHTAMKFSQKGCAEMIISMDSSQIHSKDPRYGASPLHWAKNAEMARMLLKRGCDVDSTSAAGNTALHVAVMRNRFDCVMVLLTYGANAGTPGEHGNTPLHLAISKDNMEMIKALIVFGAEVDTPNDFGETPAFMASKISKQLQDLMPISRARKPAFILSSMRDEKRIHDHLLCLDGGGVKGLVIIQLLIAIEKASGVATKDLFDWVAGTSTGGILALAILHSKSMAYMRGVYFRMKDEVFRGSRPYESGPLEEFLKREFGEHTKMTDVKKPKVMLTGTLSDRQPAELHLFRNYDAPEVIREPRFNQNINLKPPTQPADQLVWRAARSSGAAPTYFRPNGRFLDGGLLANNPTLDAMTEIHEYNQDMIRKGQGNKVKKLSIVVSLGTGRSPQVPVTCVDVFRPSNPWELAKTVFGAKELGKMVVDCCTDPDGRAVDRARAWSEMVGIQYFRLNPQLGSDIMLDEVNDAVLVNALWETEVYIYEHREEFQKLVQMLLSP
Assay: ESI-MS analysis of iPLA2β reaction products from POPC/BODIPY-PC vesicles
Assay type: biochemical
Details: 5 mol % oleoyl-CoA, FIG. 11H
Experimental: FIGS. 11A-11D—Purified iPLA2β+/−Ca^2+/CaM was incubated with POPC/BODIPY-PC (95:5 mol %) host vesicles for 2 min at 37° C. with the indicated concentrations of guest oleoyl-CoA. Relative fluorescence was recorded utilizing 495 nm excitation and 515 nm emission wavelengths as described in Experimental Procedures. FIGS. 11E-11H—ESI-MS analysis of phosphatidylcholine molecular species from the reactions described in panels A and D. Spectra were acquired in the positive ion mode with the indicated internal standards as described in Experimental Procedures. FIG. 11I—Purified iPLA2β in the presence or absence of Ca^2+/CaM was incubated with 1-palmitoyl-2-[1-^14C]-oleoyl-sn-glycero-3-phosphocholine (100 μM) host vesicles with or without guest oleoyl-CoA (10 μM) for 3 min at 37° C. Radiolabeled fatty acid was extracted into butanol, resolved by TLC, and quantified by scintillation spectrometry as described in Experimental Procedures.
To confirm that iPLA2β was in fact hydrolyzing BODIPY-PC and that the increase in fluorescence observed was not due to either protein-fluorophore or acylCoA-fluorophore interactions, the reaction substrates and products were extracted into chloroform/methanol in the presence of internal standards and subsequently quantified and analyzed by ESI-MS (83). […]

## CCCCCCCC/C=C\CCCCCCCC(=O)SCCNC(=O)CCNC(=O)[C@H](O)C(C)(C)COP(=O)(O)OP(=O)(O)OC[C@H]1O[C@@H](n2cnc3c(N)ncnc32)[C@H](O)[C@@H]1OP(=O)(O)O [oleoyl-CoA]
  effect on inhibition of iPLA2β by Ca2+/CaM: completely reversed the inhibition
